Data taken from patent US20260265239A1, “CRYSTAL FORM OF 2,6-PIPERIDINEDIONE COMPOUND, AND PREPARATION METHOD THEREFOR AND USE THEREOF” (ZHANGZHOU PIEN TZE HUANG PHARMACEUTICAL CO., LTD., priority 2023, published 2026).
Where a name gives a salt, the structure may show the parent alone.

System: human diffuse large B-cell lymphoma TMD-8 cells
Experiment: BALB/c nude mouse subcutaneous xenograft tumor model of human diffuse large B-cell lymphoma TMD-8 cells
Format: in vivo, BALB/c nude mice
Conditions: for Tumor Volume (Day 0) / Tumor Volume (Day 22): mean ± SEM
Description: The antitumor effect of the test compound was evaluated using a BALB/c nude mouse subcutaneous xenograft tumor model of human diffuse large B-cell lymphoma TMD-8 cells.
• 1. Experimental animals: BALB/c nude mice, female, 6 to 8 weeks old. Vital River Laboratory Animal Technology Co., Ltd. • 2. Cell line: Human diffuse large B-cell lymphoma TMD-8 cells (purchased from Shanghai Huzhen Industrial Co., Ltd.).
Cell culture: Routine cell culture was conducted in RPMI-1640 medium containing 10% fetal bovine serum under 5% CO2 at 37° C. Cells were passaged based on cell growth conditions at a passage ratio of 1:3 to 1:4.
Tumor cell inoculation and grouping: TMD-8 cells in the logarithmic growth phase were harvested, counted, and resuspended in a mixture of 50% serum-free RPMI-1640 medium and 50% Matrigel. The cell concentration was adjusted to 4.0×10^7 cells/mL. The cell suspension was placed in an ice box, aspirated using a 1-mL syringe, and injected subcutaneously into the right forelimb axilla of nude mice at 200 μL per animal (0.8×10^7 cells/mouse) to establish the TMD-8 xenograft tumor model. Administration was started when the average tumor volume reached approximately 160 mm^3. The day of grouping was designated as Day 1 (D1) of the experiment, and administration was started based on animal body weight.
The pharmacodynamic experiment was conducted with a 7-day administration cycle, where the test compound was administered once daily intragastrically at 24-hour intervals, for a total of three cycles. During the experiment, animal body weight and tumor size were measured twice a week, and clinical symptoms were observed and recorded daily.
The test compound was administered at doses of 10 mg/kg, 30 mg/kg, and 100 mg/kg, with the vehicle being 10% DMSO/10% Solutol HS15/80% water. Tumor volume (TV) was calculated using the formula: ½×a×b^2, where a and b represent the measured length and width of the tumor, respectively. The tumor growth inhibition rate (TGI, %) was calculated using the formula: TGI (%)=[1−(average tumor volume at the end of administration in a treatment group−average tumor volume at the beginning of administration in this treatment group)/(average tumor volume at the end of treatment in the vehicle control group−average tumor volume at the beginning of treatment in the vehicle control group)]×100%. The relative tumor proliferation rate (T/C, %) was calculated using the formula: T/C %=TRTV/CRTV[…] (TRTV: mean RTV of the treatment group; CRTV: mean RTV of the negative control group). The relative tumor volume (RTV) was calculated based on the tumor measurement results, with the formula RTV=Vt/V0, where V0 is the tumor volume measured at the time of grouping administration (i.e., Day 1), and Vt is the tumor volume at a certain measurement time. TRTV and CRTV were derived from data on the same day.
The experimental data were calculated and subjected to relevant statistical processing using Microsoft Office Excel 2007 software. Unless otherwise specified, the data were expressed as mean±standard error (Mean±SE), and comparisons between groups were performed using t-tests.

[1] = 10 mg/kg intragastric once daily
[2] = 30 mg/kg intragastric once daily
[3] = 100 mg/kg intragastric once daily

O=C1CCC(c2noc3ccc4c(NC(=O)CN5CCN(C[C@H]6CC[C@H](n7cc(NC(=O)c8coc(-c9ccnc(NCC%10CC%10)c9)n8)c(C(F)F)n7)CC6)CC5)cccc4c23)C(=O)N1 (stereo partly drawn) [Hydrochloride of Compound of Formula (I)]
T/C (Day 22) [1]: 58% | TGI (Day 22) [1]: 49% | Tumor Volume (Day 0) [1]: 161 ± 12 mm^3 | Tumor Volume (Day 22) [1]: 714 ± 153 mm^3 | T/C (Day 22) [2]: 34% | TGI (Day 22) [2]: 75% | Tumor Volume (Day 0) [2]: 160 ± 9 mm^3 | Tumor Volume (Day 22) [2]: 430 ± 98 mm^3 | T/C (Day 22) [3]: 23% | TGI (Day 22) [3]: 88% | Tumor Volume (Day 0) [3]: 160 ± 8 mm^3 | Tumor Volume (Day 22) [3]: 291 ± 70 mm^3
